Source: patent US12673927B2, “Substituted aminothiazoles as DGKzeta inhibitors for immune activation” (Deutsches Krebsforschungszentrum, priority 2020, dated 2026)
Read-outs that look alike come from different tables or passages of the source.

Target: T1, human DGKζ (Homo sapiens, UniProt Q13574)
T1 construct: made in house; host or cells: Sf9 insect cells, baculovirus
Assay: Human DGKζ kinase activity inhibition assay (ADP-Glo)
Assay type: biochemical
Experimental: Human DGKζ Kinase Activity Inhibition Assay
Human diacylglycerol kinase zeta (DGKζ) inhibitory activity of compounds of the present invention was quantified employing the human DGKζ kinase activity assay as described in the following paragraphs. In essence, the enzyme activity was measured by quantification of the adenosine-di-phosphate (ADP) generated as a co-product of the enzyme reaction via the “ADP-Glo™ Kinase Assay” kit from the company Promega. This detection system works as follows: In a first step the adenosine-tri-phosphate (ATP) not consumed in the kinase reaction is quantitatively converted to cyclic adenosine-mono-phosphate (cAMP) employing an adenylate cyclase (“ADP-Glo-reagent”), then the adenylate cyclase is stopped and the ADP generated in the kinase reaction is converted to ATP, which subsequently generates in a luciferase-based reaction a glow-luminescence signal (“Kinase Detection Reagent”).
C-terminally FLAG-tagged, recombinant full-length human DGKζ (inhouse expressed in baculovirus infected insect cells, purified using anti-Flag pulldown and size exclusion chromatography) was used as enzyme. As an alternative, commercially available enzyme by Carnabio can be used. As substrate for the kinase, 1,2-dioleoyl-sn-glycerol, reconstituted in octyl-β-D-glucopyranoside micelles, was used. […] Subsequently, 22.55 volumes of a 510 mM solution of octyl-β-D-glucopyranoside (Sigma-Aldrich, Cat. #08001-10G) in 50 mM MOPS buffer (pH 7.4) were added, and the mixture was sonicated in an ultrasonic bath for 20 s. Then 35 volumes of 50 mM MOPS buffer (pH 7.4) were added to yield a solution of 0.28 mM 1,2 dioleoyl-sn-glycerol and 200 mM octyl-β-D-glucopyranoside, which was aliquoted, flash-frozen in liquid nitrogen, and stored at −20° C. until use.
For the assay 50 nl of a 100-fold concentrated solution of the test compound in dimethyl sulfoxide (DMSO, Sigma) was pipetted into either a white 1536-well or a white low-volume 384-well microtiter plate (both Greiner Bio-One, Frickenhausen, Germany). […] The concentration of DGKζ was adjusted depending of the activity of the enzyme lot and was chosen appropriate to have the assay in the linear range, a typical concentration is about 0.1 nM. The reaction was stopped by the addition of 2.5 μL of “ADP-Glo-reagent” (1 to 1.5 diluted with water) and the resulting mixture was incubated at 22° C. for 1 h to convert the ATP not consumed in the kinase reaction completely to cAMP. Subsequently 2.5 μl of the “kinase detection reagent” (1.2 fold more concentrated than recommended by the producer) were added, the resulting mixture was incubated at 22° C. for 1 h and then the luminescence measured with a suitable measurement instrument (e.g. Viewlux™ from Perkin-Elmer). The amount of emitted light was taken as a measure for the amount of ADP generated and thereby for the activity of the DGKζ.
The data were normalised (enzyme reaction without inhibitor=0% inhibition, all other assay components but no enzyme=100% inhibition).

[1] = recombinant full-length human DGKζ, 55 μM ATP, 7 μM 1,2-dioleoyl-sn-glycerol, 20 min at 22° C., read-out: IC50 in vitro human DGKζ kinase activity inhibition assay
[2] = intermediates (lacking the R2 side chain; comparative), highest test concentration 20 μM, read-out: IC50 values of intermediates in in vitro human DGKζ kinase activity inhibition assays

T1 sequence (Q13574 with tags, fused parts or gaps): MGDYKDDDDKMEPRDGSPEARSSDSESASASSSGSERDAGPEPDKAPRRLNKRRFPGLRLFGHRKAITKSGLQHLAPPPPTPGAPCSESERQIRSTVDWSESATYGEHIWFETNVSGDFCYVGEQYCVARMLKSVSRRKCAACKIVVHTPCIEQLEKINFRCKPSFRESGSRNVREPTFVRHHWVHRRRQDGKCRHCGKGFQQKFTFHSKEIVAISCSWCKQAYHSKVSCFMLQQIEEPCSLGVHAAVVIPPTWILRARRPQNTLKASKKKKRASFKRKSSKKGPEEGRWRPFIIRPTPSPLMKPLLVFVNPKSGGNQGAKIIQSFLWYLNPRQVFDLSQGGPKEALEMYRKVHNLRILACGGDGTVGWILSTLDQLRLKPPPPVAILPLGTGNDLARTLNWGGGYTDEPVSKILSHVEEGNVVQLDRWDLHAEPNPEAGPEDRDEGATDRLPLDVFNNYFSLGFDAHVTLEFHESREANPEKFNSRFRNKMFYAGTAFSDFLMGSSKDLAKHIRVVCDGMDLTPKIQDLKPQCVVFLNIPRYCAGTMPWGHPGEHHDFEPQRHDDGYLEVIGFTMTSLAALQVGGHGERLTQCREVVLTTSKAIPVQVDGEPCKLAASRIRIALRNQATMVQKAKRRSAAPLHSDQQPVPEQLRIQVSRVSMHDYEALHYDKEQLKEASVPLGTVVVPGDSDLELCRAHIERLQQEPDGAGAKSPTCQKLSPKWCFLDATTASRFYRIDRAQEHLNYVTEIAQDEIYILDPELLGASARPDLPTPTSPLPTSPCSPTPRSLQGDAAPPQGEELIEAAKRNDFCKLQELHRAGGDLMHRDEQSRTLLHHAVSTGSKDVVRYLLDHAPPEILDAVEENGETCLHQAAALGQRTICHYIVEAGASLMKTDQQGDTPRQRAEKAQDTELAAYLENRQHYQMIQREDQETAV

Row | SMILES | IC50 [1] | IC50 [2]
1 | COc1ccc(C(=O)c2sc(N(c3ccc(F)c(F)c3)C(C)C(N)=O)nc2N)cc1 (single isomer, unassigned) [Example 51.1, 2-(N-[4-amino-5-(4-methoxybenzoyl)thiazol-2-yl]-3,4-difluoro-anilino)propanamide] | 8.85 nM | –
2 | CC(C(N)=O)N(c1cccc(F)c1)c1nc(N)c(C(=O)c2ccccc2)s1 (single isomer, unassigned) [Example 74.2, 2-(N-(4-amino-5-benzoyl-thiazol-2-yl)-3-fluoro-anilino)propanamide] | 81.4 nM | –
3 | CC(C(N)=O)N(c1nc(N)c(C(=O)c2ccccc2)s1)c1ccccc1F (single isomer, unassigned) [Example 75.2, 2-(N-(4-amino-5-benzoyl-thiazol-2-yl)-2-fluoro-anilino)propanamide] | 214 nM | –
4 | CC(C(N)=O)N(c1ccc(F)c(F)c1)c1nc(N)c(C(=O)c2ccc(OC(F)F)cc2)s1 (single isomer, unassigned) [Example 49.1, 2-(N-[4-amino-5-[4-(difluoromethoxy)benzoyl]thiazol-2-yl]-3,4-difluoro-anilino)propanamide] | 1030 nM | –
5 | COc1ccc(C(=O)c2sc(N(c3ccc(F)c(F)c3)C(C)C(N)=O)nc2N)cc1 (single isomer, unassigned) [Example 51.2, 2-(N-[4-amino-5-(4-methoxybenzoyl)thiazol-2-yl]-3,4-difluoro-anilino)propanamide] | 872 nM | –
6 | Cc1nc(N(c2ccc(F)cc2)C(C)C(N)=O)sc1C(=O)c1ccc(OC(F)F)cc1 (racemic) [Example 54] | 20.7 nM | –
7 | Cc1ccc(C(=O)c2sc(N(CC(N)=O)c3ccc(F)cc3)nc2N)cc1 (racemic) [Example 72] | 985 nM | –
8 | CC(C(N)=O)N(c1ccc(Cl)c(F)c1)c1nc(N)c(C(=O)c2ccncc2)s1 (single isomer, unassigned) [Example 56.2, 2-(N-[4-amino-5-(pyridine-4-carbonyl)thiazol-2-yl]-4-chloro-3-fluoro-anilino)propanamide] | 7640 nM | –
9 | CC(C(N)=O)N(c1ccc(F)cc1)c1nc(N)c(C(=O)c2ccc(C#N)c(F)c2)s1 (single isomer, unassigned) [Example 21.2, 2-(N-[4-amino-5-(4-cyano-3-fluoro-benzoyl)thiazol-2-yl]-4-fluoro-anilino)propanamide] | 51 nM | –
10 | Nc1nc(Nc2ccc(F)cc2F)sc1C(=O)c1ccccc1 [Example 66] | – | > 20000 nM
11 | Cc1ccc(C(=O)c2sc(Nc3ccc(F)cc3)nc2N)cc1 [Example 64] | – | > 20000 nM

Next, values leading:

Row | IC50 [1] | IC50 [2] | SMILES
12 | 944 nM | – | CC(C(N)=O)N(c1ccc(Cl)c(F)c1)c1nc(N)c(C(=O)c2ccc(OC(F)F)nc2)s1 (single isomer, unassigned) [Example 164.2, 2-(N-[4-amino-5-[6-(difluoromethoxy)pyridine-3-carbonyl]thiazol-2-yl]-4-chloro-3-fluoro-anilino)propanamide]
13 | 76.4 nM | – | CC(C(N)=O)N(c1ccc(F)cc1)c1nc(N)c(C(=O)c2ccc(OCC(=O)NCCN3CCCCC3)cc2)s1 (single isomer, unassigned) [Example 148, 2-(N-[4-amino-5-[4-[2-oxo-2-[2-(1-piperidyl)ethylamino]ethoxy]benzoyl]thiazol-2-yl]-4-fluoro-anilino)propanamide]
14 | 12.7 nM | – | CC(C(N)=O)N(c1ccc(F)cc1)c1nc(N)c(C(=O)c2ccc(OCC(=O)NCC34CC5CC(CC(C5)C3)C4)cc2)s1 (single isomer, unassigned) [Example 143, 2-(N-[5-[4-[2-(1-adamantylmethylamino)-2-oxo-ethoxy]benzoyl]-4-amino-thiazol-2-yl]-4-fluoro-anilino)propanamide]
15 | 115 nM | – | CC(C(N)=O)N(c1ccc(F)c(Cl)c1)c1nc(N)c(C(=O)c2ccncc2)s1 (single isomer, unassigned) [Example 160.1, 2-(N-[4-amino-5-(pyridine-4-carbonyl)thiazol-2-yl]-3-chloro-4-fluoro-anilino)propanamide]
16 | 2.66 nM | – | CC(C(N)=O)N(c1ccc(F)cc1)c1nc(N)c(C(=O)c2ccc(OCC(=O)Nc3ccc(Cl)cc3)cc2)s1 (single isomer, unassigned) [Example 145, 2-(N-[4-amino-5-[4-[2-(4-chloroanilino)-2-oxo-ethoxy]benzoyl]thiazol-2-yl]-4-fluoro-anilino)propanamide]
17 | 405 nM | – | CC(C(N)=O)N(c1ccc(F)cc1)c1nc(N)c(C(=O)c2ccc(OCC(N)=O)cc2)s1 (single isomer, unassigned) [Example 149, 2-(N-[4-amino-5-[4-(2-amino-2-oxo-ethoxy)benzoyl]thiazol-2-yl]-4-fluoro-anilino)propanamide]
18 | 11000 nM | – | Cc1cccc(N(c2nc(N)c(C(=O)c3ccccc3)s2)C(C)C(N)=O)c1 (single isomer, unassigned) [Example 76.2, 2-(N-(4-amino-5-benzoyl-thiazol-2-yl)-3-methyl-anilino)propanamide]
19 | 1000 nM | – | CC(C(N)=O)N(c1ccc(F)cc1)c1nc(N)c(C(=O)c2ccc(OCc3ccccc3)cc2)s1 (single isomer, unassigned) [Example 170.2, 2-(N-[4-amino-5-(4-benzyloxybenzoyl)thiazol-2-yl]-4-fluoro-anilino)propanamide]
20 | 107 nM | – | CC(C)NC(=O)COc1ccc(C(=O)c2sc(N(c3ccc(F)cc3)C(C)C(N)=O)nc2N)cc1 (single isomer, unassigned) [Example 153, 2-(N-[4-amino-5-[4-[2-(isopropylamino)-2-oxo-ethoxy]benzoyl]thiazol-2-yl]-4-fluoro-anilino)propanamide]
21 | 24 nM | – | COc1ccc(C(=O)c2sc(N(c3ccc(Cl)c(F)c3)C(C)C(N)=O)nc2N)cn1 (single isomer, unassigned) [Example 172.1, 2-(N-[4-amino-5-(6-methoxypyridine-3-carbonyl)thiazol-2-yl]-4-chloro-3-fluoro-anilino)propanamide]
22 | 111 nM | – | CC(C)NC(=O)COc1ccc(C(=O)c2sc(N(c3ccc(F)cc3)C(C)C(N)=O)nc2N)cc1 (single isomer, unassigned) [Example 152, 2-(N-[4-amino-5-[4-[2-(isopropylamino)-2-oxo-ethoxy]benzoyl]thiazol-2-yl]-4-fluoro-anilino)propanamide]
23 | 2 nM | – | CC(C(N)=O)N(c1ccc(Cl)c(F)c1)c1nc(N)c(C(=O)c2ccc(OCc3ccccc3)cc2)s1 (single isomer, unassigned) [Example 166.1, 2-(N-[4-amino-5-(4-benzyloxybenzoyl)thiazol-2-yl]-4-chloro-3-fluoro-anilino)propanamide]
24 | 3 nM | – | CC(C(N)=O)N(c1ccc(F)c(F)c1)c1nc(N)c(C(=O)c2ccc(NC(=O)OCc3ccccc3)cc2)s1 (single isomer, unassigned) [Example 167.1, Benzyl N-[4-[4-amino-2-(N-(2-amino-1-methyl-2-oxo-ethyl)-3,4-difluoro-anilino)thiazole-5-carbonyl]phenyl]carbamate]
25 | 8.79 nM | – | CC(C(N)=O)N(c1ccc(F)cc1)c1nc(N)c(C(=O)c2ccc(OCC(=O)NCCC34CC5CC(CC(C5)C3)C4)cc2)s1 (single isomer, unassigned) [Example 144]
26 | 34 nM | – | COc1ccc(C(=O)c2sc(N(c3ccc(F)cc3)C(C)C(N)=O)nc2C)cc1 (single isomer, unassigned) [Example 176.1, 2-(4-fluoro-N-[5-(4-methoxybenzoyl)-4-methyl-thiazol-2-yl]anilino)propanamide]
